# Test results: PubChem BioAssay AID2060491 (Molecular Pharmacology Branch, DTP, NCI, 2025)
# Test system: 857933-349-R-J2-PDC complex spheroids, viability
# Assay: Anticancer human tumor 857933-349-R-J2-PDC patient-derived colon adenocarcinoma cell line growth inhibition [GQUAD]
# Details: for IC50: curve of first compound; for viability, T/C: stronger effect = lower value
# Outline: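 Tumor cells were grown as complex spheroids with HUVEC endothelial cells and mesenchymal stem cells as stroma. G-quadruplex stabilizers were combined with targeted agents over half-log dilutions from near the clinical Cmax, or from 10 microM.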
# [1] = second compound 0.0316 µM, first compound 0.0316 µM
# [2] = second compound 0.0316 µM, first compound 0.1 µM
# [3] = second compound 0.0316 µM, first compound 0.316 µM
# [4] = second compound 0.0316 µM, first compound 1 µM
# [5] = second compound 0.0316 µM, first compound 3.16 µM
# [6] = second compound 0.0316 µM, first compound 10 µM
# [7] = second compound 0.1 µM, first compound 0.0316 µM
# [8] = second compound 0.1 µM, first compound 0.1 µM
# [9] = second compound 0.1 µM, first compound 0.316 µM
# [10] = second compound 0.1 µM, first compound 1 µM
# [11] = second compound 0.1 µM, first compound 3.16 µM
# [12] = second compound 0.1 µM, first compound 10 µM
# [13] = second compound 0.316 µM, first compound 0.0316 µM
# [14] = second compound 0.316 µM, first compound 0.1 µM
# [15] = second compound 0.316 µM, first compound 0.316 µM
# [16] = second compound 0.316 µM, first compound 1 µM
# [17] = second compound 0.316 µM, first compound 3.16 µM
# [18] = second compound 0.316 µM, first compound 10 µM
# [19] = second compound 1 µM, first compound 0.0316 µM
# [20] = second compound 1 µM, first compound 0.1 µM
# [21] = second compound 1 µM, first compound 0.316 µM
# [22] = second compound 1 µM, first compound 1 µM
# [23] = second compound 1 µM, first compound 3.16 µM
# [24] = second compound 1 µM, first compound 10 µM
# [25] = second compound 3.16 µM, first compound 0.0316 µM
# [26] = second compound 3.16 µM, first compound 0.1 µM
# [27] = second compound 3.16 µM, first compound 0.316 µM
# [28] = second compound 3.16 µM, first compound 1 µM
# [29] = second compound 3.16 µM, first compound 3.16 µM
# [30] = second compound 3.16 µM, first compound 10 µM
# [31] = second compound 10 µM, first compound 0.0316 µM
# [32] = second compound 10 µM, first compound 0.1 µM
# [33] = second compound 10 µM, first compound 0.316 µM
# [34] = second compound 10 µM, first compound 1 µM
# [35] = second compound 10 µM, first compound 3.16 µM
# [36] = second compound 10 µM, first compound 10 µM
# 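Note: spheroids exposed to compounds for one week before readout.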
# 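Throughout, for viability, T/C: percent viability relative to vehicle DMSO wells taken as 100%.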
smiles,measurement,setting,value
COc1ccc([C@@H](O)c2cc(-c3ncnc4cc(N5CCOCC5)ccc34)c(F)cc2Cl)nn1 + Cc1cnc(CNC(=O)c2c(=O)c3ccc(N4CCCN(C)CC4)nc3n3c2sc2ccccc23)cn1,IC50,second compound 0.0316 µM,712 nM
same,IC50,second compound 0.1 µM,179 nM
same,IC50,second compound 0.316 µM,< 31.6 nM
same,IC50,second compound 1 µM,< 31.6 nM
same,IC50,second compound 3.16 µM,< 31.6 nM
same,IC50,second compound 10 µM,< 31.6 nM
same,"viability, T/C",[1],95.5%
same,"viability, T/C",[2],81.5%
same,"viability, T/C",[3],58%
same,"viability, T/C",[4],47.1%
same,"viability, T/C",[5],43%
same,"viability, T/C",[6],38%
same,"viability, T/C",[7],59.5%
same,"viability, T/C",[8],59.5%
same,"viability, T/C",[9],40.9%
same,"viability, T/C",[10],25.9%
same,"viability, T/C",[11],23.2%
same,"viability, T/C",[12],26.5%
same,"viability, T/C",[13],26.5%
same,"viability, T/C",[14],26.6%
same,"viability, T/C",[15],14.2%
same,"viability, T/C",[16],3.09%
same,"viability, T/C",[17],2.64%
same,"viability, T/C",[18],2.37%
same,"viability, T/C",[19],4.74%
same,"viability, T/C",[20],3.32%
same,"viability, T/C",[21],3.45%
same,"viability, T/C",[22],2.29%
same,"viability, T/C",[23],1.33%
same,"viability, T/C",[24],1.08%
same,"viability, T/C",[25],2.27%
same,"viability, T/C",[26],2.54%
same,"viability, T/C",[27],2.01%
same,"viability, T/C",[28],1.72%
same,"viability, T/C",[29],1.23%
same,"viability, T/C",[30],0.95%
same,"viability, T/C",[31],1.48%
same,"viability, T/C",[32],2.1%
same,"viability, T/C",[33],0.71%
same,"viability, T/C",[34],1.8%
same,"viability, T/C",[35],0.73%
same,"viability, T/C",[36],0.29%
Cc1[nH]c2ccccc2c1CCNCc1ccc(/C=C/C(=O)NO)cc1 + CN(C)c1ccc(Nc2c3ccc(NC(=O)CCN4CCCC4)cc3nc3cc(NC(=O)CCN4CCCC4)ccc23)cc1,IC50,second compound 0.0316 µM,> 316 nM
same,IC50,second compound 0.1 µM,> 316 nM
same,IC50,second compound 0.316 µM,> 316 nM
same,IC50,second compound 1 µM,> 316 nM
same,IC50,second compound 3.16 µM,> 316 nM
same,IC50,second compound 10 µM,> 316 nM
same,"viability, T/C","second compound 0.0316 µM, first compound 0.000999 µM",105%
same,"viability, T/C","second compound 0.0316 µM, first compound 0.00316 µM",99.6%
same,"viability, T/C","second compound 0.0316 µM, first compound 0.00999 µM",109%
same,"viability, T/C",[1],101%
same,"viability, T/C","second compound 0.0316 µM, first compound 0.0999 µM",109%
same,"viability, T/C",[3],60.2%
same,"viability, T/C","second compound 0.1 µM, first compound 0.000999 µM",105%
same,"viability, T/C","second compound 0.1 µM, first compound 0.00316 µM",102%
same,"viability, T/C","second compound 0.1 µM, first compound 0.00999 µM",99.3%
same,"viability, T/C",[7],103%
same,"viability, T/C","second compound 0.1 µM, first compound 0.0999 µM",101%
same,"viability, T/C",[9],61.5%
same,"viability, T/C","second compound 0.316 µM, first compound 0.000999 µM",104%
same,"viability, T/C","second compound 0.316 µM, first compound 0.00316 µM",103%
same,"viability, T/C","second compound 0.316 µM, first compound 0.00999 µM",103%
same,"viability, T/C",[13],99.8%
same,"viability, T/C","second compound 0.316 µM, first compound 0.0999 µM",117%
same,"viability, T/C",[15],60.5%
same,"viability, T/C","second compound 1 µM, first compound 0.000999 µM",97.1%
same,"viability, T/C","second compound 1 µM, first compound 0.00316 µM",91.7%
same,"viability, T/C","second compound 1 µM, first compound 0.00999 µM",95.7%
same,"viability, T/C",[19],97.9%
same,"viability, T/C","second compound 1 µM, first compound 0.0999 µM",105%
same,"viability, T/C",[21],59.5%
same,"viability, T/C","second compound 3.16 µM, first compound 0.000999 µM",80.6%
same,"viability, T/C","second compound 3.16 µM, first compound 0.00316 µM",79.8%
same,"viability, T/C","second compound 3.16 µM, first compound 0.00999 µM",93.5%
same,"viability, T/C",[25],80.6%
same,"viability, T/C","second compound 3.16 µM, first compound 0.0999 µM",91.7%
same,"viability, T/C",[27],55.1%
same,"viability, T/C","second compound 10 µM, first compound 0.000999 µM",64%
same,"viability, T/C","second compound 10 µM, first compound 0.00316 µM",73.2%
same,"viability, T/C","second compound 10 µM, first compound 0.00999 µM",70%
same,"viability, T/C",[31],76.4%
same,"viability, T/C","second compound 10 µM, first compound 0.0999 µM",72.2%
same,"viability, T/C",[33],41.7%
CC1COCCN1c1cc(C2(S(C)(=N)=O)CC2)nc(-c2ccnc3[nH]ccc23)n1 (stereo unspecified) + Cc1[nH]c2ccc(F)cc2c1-c1nc2c3cccnc3c3ncccc3c2[nH]1,IC50,second compound 0.0316 µM,6700 nM
same,IC50,second compound 0.1 µM,6020 nM
same,IC50,second compound 0.316 µM,6090 nM
same,IC50,second compound 1 µM,7100 nM
same,IC50,second compound 3.16 µM,7160 nM
same,IC50,second compound 10 µM,6450 nM
same,"viability, T/C",[1],101%
same,"viability, T/C",[2],103%
same,"viability, T/C",[3],88.5%
same,"viability, T/C",[4],75.4%
same,"viability, T/C",[5],59.6%
same,"viability, T/C",[6],45%
same,"viability, T/C",[7],99.9%
same,"viability, T/C",[8],101%
same,"viability, T/C",[9],93.3%
same,"viability, T/C",[10],80.9%
same,"viability, T/C",[11],58.8%
same,"viability, T/C",[12],43%
same,"viability, T/C",[13],106%
same,"viability, T/C",[14],108%
same,"viability, T/C",[15],90.2%
same,"viability, T/C",[16],79.5%
same,"viability, T/C",[17],58.9%
same,"viability, T/C",[18],43.1%
same,"viability, T/C",[19],103%
same,"viability, T/C",[20],98.2%
same,"viability, T/C",[21],91.9%
same,"viability, T/C",[22],83.6%
same,"viability, T/C",[23],59.7%
same,"viability, T/C",[24],45.7%
same,"viability, T/C",[25],108%
same,"viability, T/C",[26],96.3%
same,"viability, T/C",[27],81.2%
same,"viability, T/C",[28],86.3%
same,"viability, T/C",[29],60.4%
same,"viability, T/C",[30],43.6%
same,"viability, T/C",[31],104%
same,"viability, T/C",[32],98.5%
same,"viability, T/C",[33],92.5%
same,"viability, T/C",[34],90.9%
same,"viability, T/C",[35],62.3%
same,"viability, T/C",[36],42.1%
